Experimental data from patent publication US7795235B2, “Semi-soft c-class immunostimulatory oligonucleotides” (Coley Pharmaceutical GmbH, priority 2004, dated 2010).
Oligonucleotides are written 5' to 3', each unit as a sugar letter and its base; * is a phosphorothioate linkage, no mark a phosphodiester; rarer units and linkages stand in square brackets, end groups in braces. Plain capitals give the bases only. d = 2'-deoxy (DNA)

Legend:
human PBMC = test: Cytokine secretion (IL-10, TNF-alpha, interferon-gamma, IL-6) from human PBMC; assay type: cell-based; conditions: human PBMC (3 donors), 48 hours, ELISA, FIG. 27
Experimental: Peripheral blood buffy coat preparations from healthy male and female human donors were obtained from the Blood Bank of the University of Düsseldorf (Germany) and from these, PBMC were purified by centrifugation over Ficoll-Hypaque (Sigma). The purified PBMC were either used freshly (for most assays) or were suspended in freezing medium and stored at −70° C. When required, aliquots of these cells were thawed, washed and resuspended in RPMI 1640 culture medium (BioWhittaker, Belgium) supplemented with 5% (v/v) heat inactivated human AB serum (BioWhittaker, Belgium) or 10% (v/v) heat inactivated FCS, 2 mM L-glutamine (BioWhittaker), 100 U/ml penicillin and 100 μg/ml streptomycin (Invitrogen (Karlsruhe, Germany)).
Thawed or fresh PBMC were seeded on 48 well flat-bottom plates, or 96 well round-bottom plates, and incubated with ODN in the concentrations as indicated in a humidified incubator at 37° C. Culture supernatants were collected and if not used immediately, were frozen at −20° C. until required. Amounts of cytokines in the supernatants were assessed using commercially available ELISA Kits (Diaclone, USA) or in-house ELISAs developed using commercially available antibodies (from Becton Dickinson/Pharmingen or PBL). […]

guinea pigs [1] = test: Antigen-induced increase in nasal resistance in guinea pigs; assay type: in vivo, guinea pig; conditions: 0.03-1 mg/kg intranasal, over 40 minutes after challenge, FIG. 2
Experimental: Guinea pigs (male, Hartley) were sensitized with antigen (ovalbumin, 5 mg both intraperitoneal and subcutaneous) on study day 0. A boost sensitization (5 mg, intraperitoneal) was given on study day 4. Guinea pigs were antigen challenged by exposure to intranasally-administered antigen twice each week for two consecutive weeks. The first challenge was on study day 14. SEQ ID NO:7 (lot number AQE-03J-001-M, 0.03-1 mg/kg in […] saline) was administered intranasally once each week, two days before the first antigen challenge of the week. With the exception of the final challenge on study day 24, antigen challenge was with ovalbumin (1.5 mg/kg in 150 μl/kg saline). Animals were pretreated with mepyramine (10 mg/kg, intraperitoneal) 30 minutes before challenge to protect against histamine-induced anaphylaxis. On study day 24, guinea pigs were anesthetized to allow measurement of nasal resistance using a Buxco respiratory mechanics system and software. […] Nasal resistance was measured for 40 minutes after challenge.
Methods: To investigate the effects of the CpG oligodeoxynucleotide SEQ ID NO:7 against antigen induced increases in nasal resistance in the guinea pigs guinea pigs were sensitized with antigen, then antigen-challenged nasally. Nasal resistance was measured for 40 minutes after challenge.

BALB/c mice [2] = test: Mouse model of allergic rhinitis (sneezing, nasal rubbing); assay type: in vivo; conditions: intranasal, 10 minute period after antigen challenge, FIG. 3
Experimental: Mice (male BALB/c) were sensitized on study days 0 and 7 with antigen (ovalbumin, 100 μg, i.p.) with aluminum hydroxide adjuvant (Pierce Alum i.p.). Mice were antigen challenged daily by exposure to intranasally-administered antigen (1 mg in 10 μl saline). The first challenge was on study day 14. SEQ ID NO:7 was administered intranasally twice. The first dose was given 2 days before the first antigen challenge. The second dose was given 7 days later. Alternatively, budesonide (an anti-inflammatory, synthetic corticosteroid) was administered intranasally daily. The first dose was given 2 days before the first antigen challenge. On each day, the budesonide dose was administered intranasally 4 hours before intranasal antigen challenge. Endpoints were measured on study day 26 (i.e. 7 days after the second dose of SEQ ID NO: 7. Nasal tissues were taken for histopathological assessment of inflammation. Separate mice received a final antigen challenge and incidences of sneezing and nasal rubbing were counted for a 10 minute period after challenge.
Methods: BALB/c mice were used to study the effects of SEQ ID NO:7 on symptoms of allergic rhinitis. […] Separate mice received a final antigen challenge and incidences of sneezing and nasal rubbing were counted for a 10 minute period after challenge.

BALB/c mice [3] = test: Antigen-induced IgE and IgG2a production in the mouse; assay type: in vivo; conditions: i.p. 1-1000 μg/kg, serum study day 18, FIG. 19
Experimental: Methods: Mice (male BALB/c) were sensitized on study days 0 and 7 with antigen (ovalbumin, 10 μg, i.p.) and aluminum hydroxide adjuvant Pierce Alum, i.p.). Mice received SEQ ID NO:2 or SEQ ID NO:7 on study days −2, 0, 5 and 7 (i.e. two days before each sensitization and on the day of sensitization). Mice were bled by cardiac puncture on study day 18. Serum was collected by centrifugation and assayed by ELISA for ovalbumin-specific IgE and IgG2a.

guinea pigs [4] = test: Guinea pig AHR protocol (airway resistance and lung compliance); assay type: in vivo; conditions: guinea pigs, 10, 30, 100 or 300 μl/kg, i.t.
Experimental: Male guinea pigs were sensitized on study days 0 and 4 with antigen (ovalbumin, 0.5 ml, 1% OVA i.p./s.c.) with aluminum hydroxide adjuvant. Guinea pigs were antigen challenged by exposure to inhaled ovalbumin aerosol, twice each week for two consecutive weeks. The first challenge was on study day 13. CpG ODN or vehicle (saline, 20 μl) were administered intranasally once each week, two days before the first antigen challenge of the week. Airways hyperreactivity was assessed 24 hours after the last antigen challenge by measuring bronchoconstriction (increase in airway resistance) to intravenous methacholine. For each animal, a dose-response curve to methacholine was obtained, and airway reactivity was quantified as the area under the curve.
Method: Guinea pigs were sensitized as described in Example 10. The first challenge was on study day 13. Guinea pigs were given intranasally either carrier (saline), OVA alone, of concentrations of SEQ ID NO:7 of 10 μl/kg, 30 μl/kg, 100 μl/kg, or 300 μl/kg, i.t.
Method: Guinea pigs were sensitized as described in Example 10. The first challenge was on study day 13. Guinea pigs were given intranasally either carrier (saline), OVA alone, of concentrations of SEQ ID NO:2 of 10 μl/kg, 30 μl/kg, 100 μl/kg, or 300 μl/kg, i.t.

human TLR9 = target: T1, human TLR9 (Homo sapiens, UniProt Q9NR96); test: Stimulation of TLR9-transfected cells in vitro (luciferase readout); assay type: cell-based; conditions: quotient between highest value of all concentrations tested and medium control
T1 construct: expressed in transfected cells; host or cells: HEK 293
T1 sequence (Q9NR96 26-1032): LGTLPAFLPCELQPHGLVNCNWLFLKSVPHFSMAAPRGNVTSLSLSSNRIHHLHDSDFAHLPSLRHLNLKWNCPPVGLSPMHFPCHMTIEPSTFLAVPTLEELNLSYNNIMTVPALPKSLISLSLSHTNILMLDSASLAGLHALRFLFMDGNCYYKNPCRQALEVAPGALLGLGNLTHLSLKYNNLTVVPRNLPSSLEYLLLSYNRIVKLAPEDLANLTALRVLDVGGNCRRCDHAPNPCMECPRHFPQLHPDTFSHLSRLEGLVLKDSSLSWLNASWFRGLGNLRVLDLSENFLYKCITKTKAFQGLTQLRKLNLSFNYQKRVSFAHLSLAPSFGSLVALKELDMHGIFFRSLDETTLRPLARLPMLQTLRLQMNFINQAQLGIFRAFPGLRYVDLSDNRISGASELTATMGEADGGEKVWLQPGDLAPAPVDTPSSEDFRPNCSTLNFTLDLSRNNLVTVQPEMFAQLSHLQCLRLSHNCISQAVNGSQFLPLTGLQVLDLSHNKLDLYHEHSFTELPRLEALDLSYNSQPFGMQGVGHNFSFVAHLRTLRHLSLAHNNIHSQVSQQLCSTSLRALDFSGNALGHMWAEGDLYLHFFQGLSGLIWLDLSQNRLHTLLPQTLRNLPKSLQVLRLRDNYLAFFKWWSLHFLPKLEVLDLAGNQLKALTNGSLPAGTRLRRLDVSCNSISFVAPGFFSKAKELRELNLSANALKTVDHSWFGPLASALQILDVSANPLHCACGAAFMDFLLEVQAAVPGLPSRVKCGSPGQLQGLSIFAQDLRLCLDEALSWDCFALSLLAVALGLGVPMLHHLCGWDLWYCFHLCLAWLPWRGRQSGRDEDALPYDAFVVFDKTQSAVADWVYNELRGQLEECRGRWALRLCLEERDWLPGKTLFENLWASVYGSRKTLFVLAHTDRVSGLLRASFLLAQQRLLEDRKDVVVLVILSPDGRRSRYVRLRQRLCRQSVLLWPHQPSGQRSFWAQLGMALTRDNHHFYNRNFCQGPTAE
Experimental: Methods: HEK 293 cells transfected with human TLR9 were incubated with SEQ ID NO:1, SEQ ID NO:2, SEQ ID NO:3, SEQ ID NO:4, SEQ ID NO:5, or SEQ ID NO:6 for 16 hours. The signal was determined by a luciferase readout.
The EC50 was calculated using Sigma Plot (SigmaPlot 2002 for Windows version 8.0). The maximal stimulation index (max SI) was calculated as the quotient between the highest value of all concentrations tested for any ODN and the medium control.

2 (T*C_G*T*C_G*T*C_G*T*T*C_G*G*C*G*C_G*C*G*C*C*G; as printed in the source, key not given here) [compound 2]
induction of IL-10 (human PBMC): dramatically higher induction

T*C_G*T*C_G*T*T*T*T*G*A*C_G*T*T*T*T*G*T*C_G*T*T (DNA dT*dCdG*dT*dCdG*dT*dT*dT*dT*dG*dA*dCdG*dT*dT*dT*dT*dG*dT*dCdG*dT*dT) [SEQ ID NO: 7, Semi-soft class B CpG ODN included for comparison, reference compound]
antigen-induced increase in nasal resistance (guinea pigs [1]): significantly suppressed
incidence of nasal rubbing (BALB/c mice [2]): suppressed
incidence of sneezing (BALB/c mice [2]): suppressed
production of antigen (ovalbumin)-specific IgE (BALB/c mice [3]): suppressed
production of antigen (ovalbumin)-specific IgG2a (BALB/c mice [3]): potentiated
AUC-resistance (airway reactivity, area under the dose-response curve) (guinea pigs [4]): dose-dependent reduction

T*C_G*T*C_G*A*C_G*A*T*C_G*G*C*G*C_G*C*G*C*C*G (DNA TCGTCGACGATCGGCGCGCGCCG; DNA, backbone and methylation of C not given here; Stabilized (*) and phosphodiester or phosphodiester-like (_) linkages) [SEQ ID NO: 4]
max SI (maximal stimulation index) (human TLR9): 14

T*T*C_G*T*C_G*T*T*T*T_G*T*C_G*T*T (DNA TTCGTCGTTTTGTCGTT; DNA, backbone and methylation of C not given here; Stabilized (*) and phosphodiester or phosphodiester-like (_) linkages) [SEQ ID NO: 5]
max SI (maximal stimulation index) (human TLR9): 13

T*C_G*T*C_G*A*C_G*T*T*C_G*G*C*G*C_G*C*G*C*C*G (DNA dT*dCdG*dT*dCdG*dA*dCdG*dT*dT*dCdG*dG*dC*dG*dCdG*dC*dG*dC*dC*dG) [SEQ ID NO: 1, Semi-soft class C CpG ODN]
max SI (maximal stimulation index) (human TLR9): 22
induction of IL-10 (human PBMC): dramatically higher induction

T*C_G*T*C_G*T*T*C_G*G*C*G*C*G*C*C*G (DNA TCGTCGTTCGGCGCGCCG; DNA, backbone and methylation of C not given here; Stabilized (*) and phosphodiester or phosphodiester-like (_) linkages) [SEQ ID NO: 3, Semi-soft class C CpG ODN]
max SI (maximal stimulation index) (human TLR9): 16

T*T*T*C_G*T*C_G*T*T*T*C_G*T*C_G*T*T (DNA TTTCGTCGTTTCGTCGTT; DNA, backbone and methylation of C not given here; Stabilized (*) and phosphodiester or phosphodiester-like (_) linkages) [SEQ ID NO: 6]
max SI (maximal stimulation index) (human TLR9): 11
